Measured values from ChEMBL document CHEMBL5058649, “Data for DCP probe BAY 1816032” (2022).
Calls of active or inactive are those of the source. No cut-off for these calls is given here.

Experiments:
[1] = target: Phosphatidylinositol 5-phosphate 4-kinase type-2 beta (Homo sapiens) (UniProt P78356); experiment: PIP5K2B DiscoveRx kinase panel; conditions: Compound concentration 1.0 uM
[2] = target: Receptor-interacting serine/threonine-protein kinase 1 (Homo sapiens) (UniProt Q13546); experiment: RIPK1 DiscoveRx kinase panel; conditions: Compound concentration 1.0 uM
[3] = target: D(2) dopamine receptor (Homo sapiens) (UniProt P14416); conditions: Compound concentration 10.0 uM
Homo sapiens = organism: Homo sapiens; experiment: Chemokine CCR1 Eurofins-Panlabs radioligand binding assay; parameters: ligand concentration 0.1 nM; conditions: Compound concentration 10.0 uM
[4] = target: Histamine H2 receptor (Homo sapiens) (UniProt P25021); conditions: Compound concentration 10.0 uM
Histamine H2 receptor (Homo sapiens), sequence (P25021 whole entry): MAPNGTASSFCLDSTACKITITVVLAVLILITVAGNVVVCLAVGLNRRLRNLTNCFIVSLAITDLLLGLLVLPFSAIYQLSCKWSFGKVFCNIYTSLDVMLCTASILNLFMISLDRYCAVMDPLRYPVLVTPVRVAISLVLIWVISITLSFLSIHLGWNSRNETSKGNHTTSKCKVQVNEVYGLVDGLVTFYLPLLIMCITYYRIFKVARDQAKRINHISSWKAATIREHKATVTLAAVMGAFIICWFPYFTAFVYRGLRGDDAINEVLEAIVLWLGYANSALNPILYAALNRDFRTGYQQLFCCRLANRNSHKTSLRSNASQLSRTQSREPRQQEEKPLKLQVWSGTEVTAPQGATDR

[5] = target: G protein-coupled receptor kinase 3 (Homo sapiens) (UniProt P35626); experiment: GRK3 DiscoveRx kinase panel; conditions: Compound concentration 1.0 uM
[6] = target: Serine/threonine-protein kinase 10 (Homo sapiens, UniProt O94804); experiment: LOK DiscoveRx kinase panel
[7] = target: Mitogen-activated protein kinase kinase kinase 2 (Homo sapiens) (UniProt Q9Y2U5); experiment: MAP3K2 DiscoveRx kinase panel; conditions: Compound concentration 1.0 uM
[8] = target: Cyclin-dependent kinase-like 3 (Homo sapiens) (UniProt Q8IVW4); experiment: CDKL3 DiscoveRx kinase panel; conditions: Compound concentration 1.0 uM
[9] = target: Bone morphogenetic protein receptor type-1A (Homo sapiens) (UniProt P36894); experiment: BMPR1A DiscoveRx kinase panel; conditions: Compound concentration 1.0 uM
[10] = target: Acetylcholine receptor subunit alpha (Homo sapiens) (UniProt P02708); experiment: Inhibition of Nicotinic Acetylcholine D1, Bungarotoxin at 10 µM in the Eurofins-Panlabs radioligand binding assay (Eurofins_assay_258700); conditions: Compound concentration 10.0 uM
Acetylcholine receptor subunit alpha (Homo sapiens), sequence (P02708 whole entry): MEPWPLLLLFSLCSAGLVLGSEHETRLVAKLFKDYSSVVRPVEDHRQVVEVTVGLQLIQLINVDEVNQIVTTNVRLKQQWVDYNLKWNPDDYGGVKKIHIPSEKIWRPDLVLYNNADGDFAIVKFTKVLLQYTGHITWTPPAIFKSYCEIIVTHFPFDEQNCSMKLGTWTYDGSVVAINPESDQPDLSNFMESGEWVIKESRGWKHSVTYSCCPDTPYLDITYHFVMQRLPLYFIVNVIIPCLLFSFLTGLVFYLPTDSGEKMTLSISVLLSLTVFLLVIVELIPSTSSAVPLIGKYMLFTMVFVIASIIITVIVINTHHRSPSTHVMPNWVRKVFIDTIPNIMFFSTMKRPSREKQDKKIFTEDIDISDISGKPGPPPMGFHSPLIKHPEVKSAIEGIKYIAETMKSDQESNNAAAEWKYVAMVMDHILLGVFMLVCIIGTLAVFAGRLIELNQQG

[11] = target: Sigma non-opioid intracellular receptor 1 (Homo sapiens, UniProt Q99720); experiment: Inhibition of Sigma 1 at 10 µM in the Eurofins-Panlabs radioligand binding assay (Eurofins_assay_278110); parameters: ligand concentration 8 nM; conditions: Compound concentration 10.0 uM
Sigma non-opioid intracellular receptor 1, sequence (Q99720 whole entry): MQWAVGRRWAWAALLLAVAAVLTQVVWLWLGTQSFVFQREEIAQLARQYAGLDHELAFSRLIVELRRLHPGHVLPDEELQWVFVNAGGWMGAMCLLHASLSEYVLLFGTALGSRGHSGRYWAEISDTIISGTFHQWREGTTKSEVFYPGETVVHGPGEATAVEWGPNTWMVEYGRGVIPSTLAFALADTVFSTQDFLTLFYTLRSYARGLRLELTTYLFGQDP

[12] = target: ALK tyrosine kinase receptor (Homo sapiens) (UniProt Q9UM73); experiment: ALK DiscoveRx kinase panel; conditions: Compound concentration 1.0 uM
[13] = target: Serine/threonine-protein kinase 17B (Homo sapiens) (UniProt O94768); experiment: DRAK2 DiscoveRx kinase panel; conditions: Compound concentration 1.0 uM
[14] = target: T1, Mitotic checkpoint serine/threonine-protein kinase BUB1 (Homo sapiens, UniProt O43683); experiment: TR-FRET
Target sequence in this assay (O43683 whole entry): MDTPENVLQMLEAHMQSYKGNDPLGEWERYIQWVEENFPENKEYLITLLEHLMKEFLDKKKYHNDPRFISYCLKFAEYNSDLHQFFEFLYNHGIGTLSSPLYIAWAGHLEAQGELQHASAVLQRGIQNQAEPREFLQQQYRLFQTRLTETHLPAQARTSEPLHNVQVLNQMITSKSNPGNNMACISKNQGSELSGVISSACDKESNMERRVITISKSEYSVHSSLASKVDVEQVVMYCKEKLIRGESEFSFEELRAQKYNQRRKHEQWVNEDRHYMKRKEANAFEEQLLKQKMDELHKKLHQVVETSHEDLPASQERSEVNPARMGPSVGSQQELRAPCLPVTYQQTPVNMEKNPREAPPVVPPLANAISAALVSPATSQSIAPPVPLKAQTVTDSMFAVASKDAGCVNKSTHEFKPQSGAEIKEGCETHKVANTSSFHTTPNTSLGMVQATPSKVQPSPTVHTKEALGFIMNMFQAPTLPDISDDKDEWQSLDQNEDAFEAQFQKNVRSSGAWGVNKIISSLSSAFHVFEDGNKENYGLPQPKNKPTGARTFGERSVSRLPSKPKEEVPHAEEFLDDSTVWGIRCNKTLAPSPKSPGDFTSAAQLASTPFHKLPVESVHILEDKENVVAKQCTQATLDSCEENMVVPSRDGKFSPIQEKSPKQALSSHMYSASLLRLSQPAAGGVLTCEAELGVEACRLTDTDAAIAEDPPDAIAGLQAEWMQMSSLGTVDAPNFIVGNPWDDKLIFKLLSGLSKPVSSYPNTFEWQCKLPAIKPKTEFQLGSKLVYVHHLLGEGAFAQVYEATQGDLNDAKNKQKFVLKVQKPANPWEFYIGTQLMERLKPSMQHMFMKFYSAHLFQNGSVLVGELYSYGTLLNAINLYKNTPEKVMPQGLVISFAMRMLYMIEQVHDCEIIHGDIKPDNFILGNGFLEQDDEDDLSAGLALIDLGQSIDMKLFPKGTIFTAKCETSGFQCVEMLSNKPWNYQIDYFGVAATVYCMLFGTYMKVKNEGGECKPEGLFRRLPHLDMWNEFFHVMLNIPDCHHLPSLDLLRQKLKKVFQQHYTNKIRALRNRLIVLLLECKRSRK

[15] = target: Vascular endothelial growth factor receptor 3 (Homo sapiens) (UniProt P35916); experiment: FLT4 DiscoveRx kinase panel; conditions: Compound concentration 1.0 uM
[16] = target: T1, Mitotic checkpoint serine/threonine-protein kinase BUB1; experiment: BUB1 DiscoveRx kinase panel
[17] = target: Mitogen-activated protein kinase 9 (Homo sapiens) (UniProt P45984); experiment: JNK2 DiscoveRx kinase panel; conditions: Compound concentration 1.0 uM
[18] = target: MAP kinase-interacting serine/threonine-protein kinase 2 (Homo sapiens) (UniProt Q9HBH9); experiment: MKNK2 DiscoveRx kinase panel; conditions: Compound concentration 1.0 uM
[19] = target: Casein kinase II subunit alpha (Homo sapiens) (UniProt P68400); experiment: CSNK2A1 DiscoveRx kinase panel; conditions: Compound concentration 1.0 uM
Casein kinase II subunit alpha (Homo sapiens), sequence (P68400 whole entry, looked up): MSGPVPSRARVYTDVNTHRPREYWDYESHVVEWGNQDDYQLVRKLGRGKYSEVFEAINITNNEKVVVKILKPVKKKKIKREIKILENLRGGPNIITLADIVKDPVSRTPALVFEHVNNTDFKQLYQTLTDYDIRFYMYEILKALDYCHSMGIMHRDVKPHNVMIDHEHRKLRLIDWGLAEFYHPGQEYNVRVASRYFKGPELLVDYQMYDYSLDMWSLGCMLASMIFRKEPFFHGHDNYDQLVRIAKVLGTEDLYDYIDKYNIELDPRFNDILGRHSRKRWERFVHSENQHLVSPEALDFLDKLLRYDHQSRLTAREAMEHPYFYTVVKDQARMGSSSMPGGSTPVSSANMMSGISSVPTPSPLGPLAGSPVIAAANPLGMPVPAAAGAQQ

[20] = target: Serine/threonine-protein kinase Nek1 (Homo sapiens) (UniProt Q96PY6); experiment: NEK1 DiscoveRx kinase panel; conditions: Compound concentration 1.0 uM
[21] = target: Serine/threonine-protein kinase Nek11 (Homo sapiens) (UniProt Q8NG66); experiment: NEK11 DiscoveRx kinase panel; conditions: Compound concentration 1.0 uM
[22] = target: NT-3 growth factor receptor (Homo sapiens) (UniProt Q16288); experiment: TRKC DiscoveRx kinase panel; conditions: Compound concentration 1.0 uM
[23] = target: Beta-1 adrenergic receptor (Homo sapiens) (UniProt P08588); conditions: Compound concentration 10.0 uM
[24] = target: Alpha-1A adrenergic receptor (Homo sapiens) (UniProt P35348); conditions: Rattus norvegicus; Compound concentration 10.0 uM
[25] = target: Non-receptor tyrosine-protein kinase TYK2 (Homo sapiens) (UniProt P29597); experiment: TYK2(JH2domain-pseudokinase) DiscoveRx kinase panel; conditions: Compound concentration 1.0 uM
[26] = target: Inhibitor of nuclear factor kappa-B kinase subunit beta (Homo sapiens) (UniProt O14920); experiment: IKK-beta DiscoveRx kinase panel; conditions: Compound concentration 1.0 uM
[27] = target: Platelet-derived growth factor receptor alpha (Homo sapiens) (UniProt P16234); experiment: PDGFRA DiscoveRx kinase panel; conditions: Compound concentration 1.0 uM
[28] = target: Serine/threonine-protein kinase MRCK gamma (Homo sapiens, UniProt Q6DT37); experiment: DMPK2 DiscoveRx kinase panel
Serine/threonine-protein kinase MRCK gamma, sequence (Q6DT37 whole entry): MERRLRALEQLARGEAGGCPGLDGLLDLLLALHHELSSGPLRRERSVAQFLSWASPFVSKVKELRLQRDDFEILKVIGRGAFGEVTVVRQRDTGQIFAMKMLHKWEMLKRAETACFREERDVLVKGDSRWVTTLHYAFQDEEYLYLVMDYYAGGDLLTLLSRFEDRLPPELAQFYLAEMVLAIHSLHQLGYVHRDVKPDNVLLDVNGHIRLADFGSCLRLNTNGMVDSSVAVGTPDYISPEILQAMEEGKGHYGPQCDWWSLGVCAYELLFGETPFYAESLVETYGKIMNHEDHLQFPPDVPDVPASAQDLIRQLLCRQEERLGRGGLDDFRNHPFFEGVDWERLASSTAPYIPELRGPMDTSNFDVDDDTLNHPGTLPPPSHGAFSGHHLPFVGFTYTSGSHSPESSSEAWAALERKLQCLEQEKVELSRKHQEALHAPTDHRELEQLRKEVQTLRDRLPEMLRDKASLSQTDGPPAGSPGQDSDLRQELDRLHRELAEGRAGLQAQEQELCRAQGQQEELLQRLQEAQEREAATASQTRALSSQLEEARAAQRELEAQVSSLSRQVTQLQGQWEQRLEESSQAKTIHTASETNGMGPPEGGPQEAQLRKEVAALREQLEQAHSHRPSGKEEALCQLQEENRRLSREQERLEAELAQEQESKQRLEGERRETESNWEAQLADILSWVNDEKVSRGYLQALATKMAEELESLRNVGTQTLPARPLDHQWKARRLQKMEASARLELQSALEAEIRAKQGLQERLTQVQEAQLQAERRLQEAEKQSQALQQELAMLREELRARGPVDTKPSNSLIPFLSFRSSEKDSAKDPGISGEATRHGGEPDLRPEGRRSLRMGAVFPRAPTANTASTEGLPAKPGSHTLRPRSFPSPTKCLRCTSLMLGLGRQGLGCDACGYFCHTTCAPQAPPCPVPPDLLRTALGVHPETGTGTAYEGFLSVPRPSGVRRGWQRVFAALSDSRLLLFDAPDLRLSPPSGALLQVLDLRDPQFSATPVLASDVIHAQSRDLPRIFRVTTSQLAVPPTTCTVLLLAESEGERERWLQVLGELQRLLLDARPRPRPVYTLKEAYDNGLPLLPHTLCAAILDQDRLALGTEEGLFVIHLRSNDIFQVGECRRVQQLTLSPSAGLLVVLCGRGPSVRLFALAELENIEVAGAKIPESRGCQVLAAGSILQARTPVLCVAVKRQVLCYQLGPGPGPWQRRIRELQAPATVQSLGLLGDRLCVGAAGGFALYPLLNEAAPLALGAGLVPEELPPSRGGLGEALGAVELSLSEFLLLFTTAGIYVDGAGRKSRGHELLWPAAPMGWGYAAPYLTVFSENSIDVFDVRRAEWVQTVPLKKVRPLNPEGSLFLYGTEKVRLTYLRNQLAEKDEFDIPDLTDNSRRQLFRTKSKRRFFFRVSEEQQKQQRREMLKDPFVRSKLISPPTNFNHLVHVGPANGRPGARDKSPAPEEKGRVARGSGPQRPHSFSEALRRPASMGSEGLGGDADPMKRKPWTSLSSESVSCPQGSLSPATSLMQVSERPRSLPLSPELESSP

[29] = target: RAC-beta serine/threonine-protein kinase (Homo sapiens) (UniProt P31751); experiment: AKT2 DiscoveRx kinase panel; conditions: Compound concentration 1.0 uM
[30] = target: Mitogen-activated protein kinase 10 (Homo sapiens) (UniProt P53779); experiment: JNK3 DiscoveRx kinase panel; conditions: Compound concentration 1.0 uM
Mitogen-activated protein kinase 10 (Homo sapiens), sequence (P53779 whole entry): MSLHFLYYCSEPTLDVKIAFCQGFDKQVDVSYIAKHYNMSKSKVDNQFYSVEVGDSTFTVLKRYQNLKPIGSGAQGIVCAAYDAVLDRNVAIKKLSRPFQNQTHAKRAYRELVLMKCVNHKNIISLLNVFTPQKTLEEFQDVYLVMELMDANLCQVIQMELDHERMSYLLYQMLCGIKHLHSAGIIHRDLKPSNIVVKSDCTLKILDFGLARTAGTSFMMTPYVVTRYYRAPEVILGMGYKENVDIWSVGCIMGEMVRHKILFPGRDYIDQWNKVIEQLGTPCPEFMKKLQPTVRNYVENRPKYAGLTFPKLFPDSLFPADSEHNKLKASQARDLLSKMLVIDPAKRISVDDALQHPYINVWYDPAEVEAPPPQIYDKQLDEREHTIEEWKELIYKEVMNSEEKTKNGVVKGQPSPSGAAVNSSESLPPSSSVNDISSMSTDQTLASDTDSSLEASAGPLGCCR

[31] = target: Microtubule-associated serine/threonine-protein kinase 1 (Homo sapiens) (UniProt Q9Y2H9); experiment: MAST1 DiscoveRx kinase panel; conditions: Compound concentration 1.0 uM
[32] = target: Myosin light chain kinase family member 4 (Homo sapiens) (UniProt Q86YV6); experiment: MYLK4 DiscoveRx kinase panel; conditions: Compound concentration 1.0 uM
[33] = target: Phosphodiesterase 3 (Homo sapiens) (UniProt Q14432+Q13370); experiment: Inhibition of Phosphodiesterase PDE3 at compound concentration of 10.0 uM in the Eurofins-Panlabs enzyme assay (Eurofins_assay_152000); format: protein assay; parameters: substrate with concentration 1.01 uM [3H] cAMP + cAMP, incubation time 20 min, incubation temperature 25 C; conditions: Compound concentration 10.0 uM
[34] = target: Serine/threonine-protein kinase PAK 5 (Homo sapiens) (UniProt Q9P286); experiment: PAK7 DiscoveRx kinase panel; conditions: Compound concentration 1.0 uM
[35] = target: Mitogen-activated protein kinase kinase kinase kinase 1 (Homo sapiens) (UniProt Q92918); experiment: HPK1 DiscoveRx kinase panel; conditions: Compound concentration 1.0 uM
[36] = target: Aurora kinase A (Homo sapiens) (UniProt O14965); experiment: AURKA DiscoveRx kinase panel; conditions: Compound concentration 1.0 uM
[37] = target: Tyrosine-protein kinase Fer (Homo sapiens) (UniProt P16591); experiment: FER DiscoveRx kinase panel; conditions: Compound concentration 1.0 uM
[38] = target: Mitogen-activated protein kinase 15 (Homo sapiens) (UniProt Q8TD08); experiment: ERK8 DiscoveRx kinase panel; conditions: Compound concentration 1.0 uM
[39] = target: Serine/threonine-protein kinase SIK1 (Homo sapiens) (UniProt P57059); experiment: SIK DiscoveRx kinase panel; conditions: Compound concentration 1.0 uM
[40] = target: Serine/threonine-protein kinase 3 (Homo sapiens) (UniProt Q13188); experiment: MST2 DiscoveRx kinase panel; conditions: Compound concentration 1.0 uM
[41] = target: Dual specificity protein kinase CLK3 (Homo sapiens) (UniProt P49761); experiment: CLK3 DiscoveRx kinase panel; conditions: Compound concentration 1.0 uM
[42] = target: Adenosine receptor A1 (Homo sapiens) (UniProt P30542); conditions: Compound concentration 10.0 uM
[43] = target: Sigma intracellular receptor 2 (Homo sapiens, UniProt Q5BJF2); conditions: Compound concentration 10.0 uM
[44] = target: Phosphatidylinositol 4-phosphate 5-kinase type-1 alpha (Homo sapiens) (UniProt Q99755); experiment: PIP5K1A DiscoveRx kinase panel; conditions: Compound concentration 1.0 uM
[45] = target: Ephrin type-B receptor 2 (Homo sapiens) (UniProt P29323); experiment: EPHB2 DiscoveRx kinase panel; conditions: Compound concentration 1.0 uM
[46] = target: Ribosomal protein S6 kinase beta-1 (Homo sapiens) (UniProt P23443); experiment: S6K1 DiscoveRx kinase panel; conditions: Compound concentration 1.0 uM
[47] = target: Activated CDC42 kinase 1 (Homo sapiens) (UniProt Q07912); experiment: TNK2 DiscoveRx kinase panel; conditions: Compound concentration 1.0 uM
[48] = target: Cyclin-dependent kinase 8 (Homo sapiens) (UniProt P49336); experiment: CDK8 DiscoveRx kinase panel; conditions: Compound concentration 1.0 uM

Phosphatidylinositol 5-phosphate 4-kinase type-2 beta (Homo sapiens), sequence (P78356 whole entry): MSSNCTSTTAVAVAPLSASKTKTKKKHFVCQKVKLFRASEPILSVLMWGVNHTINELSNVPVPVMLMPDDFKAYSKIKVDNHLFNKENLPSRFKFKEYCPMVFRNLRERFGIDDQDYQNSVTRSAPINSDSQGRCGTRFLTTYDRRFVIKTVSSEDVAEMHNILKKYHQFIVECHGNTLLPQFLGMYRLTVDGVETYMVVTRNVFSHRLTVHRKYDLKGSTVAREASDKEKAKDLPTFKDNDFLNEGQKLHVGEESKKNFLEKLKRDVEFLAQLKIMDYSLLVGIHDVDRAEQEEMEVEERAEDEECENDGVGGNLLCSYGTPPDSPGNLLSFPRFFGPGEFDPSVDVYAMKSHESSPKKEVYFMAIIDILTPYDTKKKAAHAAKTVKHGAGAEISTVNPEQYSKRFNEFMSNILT

COc1cnccc1Nc1nc(-c2nn(Cc3c(F)cc(OCCO)cc3F)c3ccccc23)ncc1OC
residual activity [1]: 91% | residual activity [2]: 97% | inhibition [3]: 17% | inhibition (Homo sapiens): -4% | inhibition [4]: 9.79% | residual activity [5]: 100% | residual activity [6]: 57% | residual activity ([6]; Compound concentration 1.0 uM): 0.6% | residual activity [7]: 97% | residual activity [8]: 89% | residual activity [9]: 74% | inhibition [10]: 14% | inhibition [11]: -3% | residual activity [12]: 100% | residual activity [13]: 83% | EC50 [14]: 6.1 nM (active) | residual activity [15]: 82% | Kd [16]: 3.3 nM | residual activity ([16]; Compound concentration 1.0 uM): 0.05% | residual activity [17]: 39% | residual activity [18]: 100% | residual activity [19]: 100% | residual activity [20]: 78% | residual activity [21]: 96% | residual activity [22]: 98% | inhibition [23]: -6.28% | inhibition [24]: 8% | residual activity [25]: 100% | residual activity [26]: 100% | residual activity [27]: 100% | Kd [28]: 850 nM | residual activity ([28]; Compound concentration 1.0 uM): 22% | residual activity [29]: 88% | residual activity [30]: 56% | residual activity [31]: 63% | residual activity [32]: 100% | inhibition [33]: 4% | residual activity [34]: 85% | residual activity [35]: 77% | residual activity [36]: 100% | residual activity [37]: 100% | residual activity [38]: 100% | residual activity [39]: 84% | residual activity [40]: 82% | residual activity [41]: 100% | inhibition [42]: 9% | inhibition [43]: 13% | residual activity [44]: 83% | residual activity [45]: 100% | residual activity [46]: 100% | residual activity [47]: 100% | residual activity [48]: 69%
